In patent publication US20250161235A1, “STRESS TEST AND TREATMENT OF CHRONIC KIDNEY DISEASE” (Renibus Therapeutics, Inc., priority 2020, published 2025):
Entries after “also recorded” stand apart in the source; their conditions may differ.

Experiments:
Type in all cases: in vivo, humans
[1] = Estimated glomerular filtration rate after administration of 90 mg tin protoporphyrin; details: mean ± 1 SD
[2] = Urine biomarkers of kidney injury after administration of 90 mg tin protoporphyrin
HO-1 = assay: Plasma HO-1 levels following SnPP injection
Protocol: Plasma HO-1 levels were measured at baseline and from 1-4 days following 9, 27, or 90 mg SnPP injection. Time and dose dependent increases were observed (mean values/95% confidence intervals depicted).
The plasma HO-1 levels rose following SnPP injection in stage 3 CKD ([…]) and stage 4 CKD ([…]) participants as shown in FIG. 2. Plasma HO-1 levels were measured at baseline and from 1-4 days following 27 mg or 90 mg SnPP injection. […] P<0.001, all in-group comparisons; ANOVA, repeated measures. The mean values/95% confidence intervals are depicted.
(§1) Baseline and maximal (peak) plasma anti-oxidant protein concentrations, as generated with the highest test dose of SnPP (90 mg). CKD=CKD 3 and CKD 4 groups combined. […] The values presented are means and 95% confidence intervals. Please see the figures for change of values over time and statistics by ANOVA for repeated measures. […] The timing of the peak values were 4 days, 12 hrs, 12 hrs and 4 hrs for HO-1, ferritin, p21, and NQO1, respectively.

ferritin = assay: Plasma ferritin levels following SnPP injection
Protocol: Plasma ferritin levels were measured at baseline and 24+48 hrs following 90 mg SnPP injection in healthy volunteers and in CKD3/CKD4 participants. […] Means/95% confidence intervals are depicted.
as §1

NQO1 = assay: Plasma and urinary NQO1 responses to 90 mg SnPP infusion
Protocol: Values are means/95% confidence intervals; urine values are after log base 10 conversion; statistics by ANOVA repeated measures, in-group comparisons.
as §1

p21 = assay: Plasma p21 concentrations following SnPP injection
Protocol: There were marked variations in p21 values between participants, as reflected by large standard deviations (SDs: numbers in parentheses that appear at the bottom of the graph). (HVs=healthy volunteers; BL=baseline).
as §1

[3] = 90 mg SnPP, healthy volunteers and CKD combined

Structure (SMILES): C=Cc1c2[n-]c(c1C)/C=c1\[n-]/c(c(C)c1C=C)=C\c1[n-]c(c(CCC(=O)O)c1C)/C=c1\[n-]c(c(C)c1CCC(=O)O)=C2.[Sn+4] [SnPP, tin protoporphyrin]
- eGFR ([1]; CKD3, Day 2 post SnPP 90 mg): 50 ± 6 ml/min/1.73 m^2
- eGFR ([1]; CKD3, Day 4 post SnPP 90 mg): 47 ± 6 ml/min/1.73 m^2
- eGFR ([1]; CKD4, Day 2 post SnPP 90 mg): 23 ± 5 ml/min/1.73 m^2
- eGFR ([1]; CKD4, Day 4 post SnPP 90 mg): 22 ± 4 ml/min/1.73 m^2
- eGFR ([1]; Healthy Volunteers, Day 2 post SnPP 90 mg): 87 ± 5 ml/min/1.73 m^2
- eGFR ([1]; Healthy Volunteers, Day 4 post SnPP 90 mg): 88 ± 4 ml/min/1.73 m^2
- urine Cystatin C ([2]; CKD 3, Day 1, mean ± 1 SD): 26.8 ± 12.9 ng/mg Cr
- urine KIM-1 ([2]; CKD 3, Day 1, mean ± 1 SD): 0.8 ± 0.2 ng/mg Cr
- urine NAG ([2]; CKD 3, Day 1, mean ± 1 SD): 5.66 ± 3.44 mU/mg Cr
- urine NGAL ([2]; CKD 3, Day 1, mean ± 1 SD): 46.5 ± 35.3 ng/mg Cr
- urine Cystatin C ([2]; CKD 3, Day 2, mean ± 1 SD): 32.2 ± 9.8 ng/mg Cr
- urine KIM-1 ([2]; CKD 3, Day 2, mean ± 1 SD): 1.5 ± 0.6 ng/mg Cr
- urine NAG ([2]; CKD 3, Day 2, mean ± 1 SD): 8.2 ± 3.44 mU/mg Cr
- urine NGAL ([2]; CKD 3, Day 2, mean ± 1 SD): 35.8 ± 23.2 ng/mg Cr
- urine Cystatin C ([2]; CKD 3, Day 3, mean ± 1 SD): 34.0 ± 9.4 ng/mg Cr
- urine KIM-1 ([2]; CKD 3, Day 3, mean ± 1 SD): 1.4 ± 0.6 ng/mg Cr
- urine NAG ([2]; CKD 3, Day 3, mean ± 1 SD): 6.5 ± 1.7 mU/mg Cr
- urine NGAL ([2]; CKD 3, Day 3, mean ± 1 SD): 49.8 ± 39.7 ng/mg Cr
- urine Cystatin C ([2]; CKD 3, Day 4, mean ± 1 SD): 33.2 ± 33.2 ng/mg Cr
- urine KIM-1 ([2]; CKD 3, Day 4, mean ± 1 SD): 0.9 ± 0.2 ng/mg Cr
- urine NAG ([2]; CKD 3, Day 4, mean ± 1 SD): 5.9 ± 2.1 mU/mg Cr
- urine NGAL ([2]; CKD 3, Day 4, mean ± 1 SD): 42.6 ± 51.7 ng/mg Cr
- urine Cystatin C ([2]; CKD 4, Day 1, mean ± 1 SD): 332 ± 519 ng/mg Cr
- urine KIM-1 ([2]; CKD 4, Day 1, mean ± 1 SD): 0.8 ± 1.0 ng/mg Cr
- urine NAG ([2]; CKD 4, Day 1, mean ± 1 SD): 12.5 ± 11.34 mU/mg Cr
- urine NGAL ([2]; CKD 4, Day 1, mean ± 1 SD): 58.0 ± 79.1 ng/mg Cr
- urine Cystatin C ([2]; CKD 4, Day 2, mean ± 1 SD): 638 ± 965 ng/mg Cr
- urine KIM-1 ([2]; CKD 4, Day 2, mean ± 1 SD): 1.2 ± 1.0 ng/mg Cr
- urine NAG ([2]; CKD 4, Day 2, mean ± 1 SD): 10.6 ± 7.5 mU/mg Cr
- urine NGAL ([2]; CKD 4, Day 2, mean ± 1 SD): 64.8 ± 91.0 ng/mg Cr
- urine Cystatin C ([2]; CKD 4, Day 3, mean ± 1 SD): 186 ± 213 ng/mg Cr
- urine KIM-1 ([2]; CKD 4, Day 3, mean ± 1 SD): 1.2 ± 1.0 ng/mg Cr
- urine NAG ([2]; CKD 4, Day 3, mean ± 1 SD): 10.5 ± 5.6 mU/mg Cr
- urine NGAL ([2]; CKD 4, Day 3, mean ± 1 SD): 47.3 ± 60.2 ng/mg Cr
- urine Cystatin C ([2]; CKD 4, Day 4, mean ± 1 SD): 207 ± 238 ng/mg Cr
- urine KIM-1 ([2]; CKD 4, Day 4, mean ± 1 SD): 1.0 ± 0.8 ng/mg Cr
- urine NAG ([2]; CKD 4, Day 4, mean ± 1 SD): 6.2 ± 3.4 mU/mg Cr
- urine NGAL ([2]; CKD 4, Day 4, mean ± 1 SD): 48.0 ± 49.5 ng/mg Cr
- urine Cystatin C ([2]; HVs, Day 1, mean ± 1 SD): 32.1 ± 15.1 ng/mg Cr
- urine KIM-1 ([2]; HVs, Day 1, mean ± 1 SD): 0.7 ± 0.5 ng/mg Cr
- urine NGAL ([2]; HVs, Day 1, mean ± 1 SD): 21.1 ± 28.7 ng/mg Cr
- urine Cystatin C ([2]; HVs, Day 2, mean ± 1 SD): 34.8 ± 7.2 ng/mg Cr
- urine KIM-1 ([2]; HVs, Day 2, mean ± 1 SD): 0.8 ± 0.7 ng/mg Cr
- urine NAG ([2]; HVs, Day 2, mean ± 1 SD): 3.16 ± 1.16 mU/mg Cr
- urine NGAL ([2]; HVs, Day 2, mean ± 1 SD): 14.8 ± 13.1 ng/mg Cr
- urine Cystatin C ([2]; HVs, Day 3, mean ± 1 SD): 39.6 ± 9.4 ng/mg Cr
- urine KIM-1 ([2]; HVs, Day 3, mean ± 1 SD): 0.7 ± 0.4 ng/mg Cr
- urine NAG ([2]; HVs, Day 3, mean ± 1 SD): 2.51 ± 0.64 mU/mg Cr
- urine NGAL ([2]; HVs, Day 3, mean ± 1 SD): 14.0 ± 8.7 ng/mg Cr
- urine Cystatin C ([2]; HVs, Day 4, mean ± 1 SD): 40.4 ± 9.3 ng/mg Cr
- urine KIM-1 ([2]; HVs, Day 4, mean ± 1 SD): 0.6 ± 0.4 ng/mg Cr
- urine NAG ([2]; HVs, Day 4, mean ± 1 SD): 2.66 ± 0.8 mU/mg Cr
- urine NGAL ([2]; HVs, Day 4, mean ± 1 SD): 10.2 ± 5.6 ng/mg Cr
- timing of the peak plasma value, HO-1 (HO-1; 90 mg SnPP): 4 days
- peak plasma HO-1 value vs baseline (HO-1; [3]): significantly higher than baseline values
- plasma HO-1 levels (HO-1; healthy volunteers, baseline and 1-4 days following 9, 27, or 90 mg SnPP injection): rise in a dose dependent fashion; also recorded: rose in a dose dependent fashion
- plasma HO-1 levels (HO-1; stage 3 CKD and stage 4 CKD participants, 1-4 days following 27 mg or 90 mg SnPP injection): rise and Time and dose dependent HO-1 increases
- timing of the peak plasma value, ferritin (ferritin; 90 mg SnPP): 12 h
- plasma ferritin increases over baseline, CKD vs healthy volunteer groups (ferritin; 90 mg SnPP injection): comparable
- peak plasma ferritin value vs baseline (ferritin; [3]): significantly higher than baseline values
- plasma ferritin levels (ferritin; baseline and 24+48 hrs following 90 mg SnPP injection, healthy volunteers and CKD3/CKD4): increase; also recorded: significant plasma ferritin increases
- timing of the peak plasma value, NQO1 (NQO1; 90 mg SnPP): 4 h
- peak plasma NQO1 value vs baseline (NQO1; [3]): significantly higher than baseline values
- plasma NQO1 (NQO1; healthy volunteer and CKD participants, 90 mg SnPP injection): acute, near identical increases
- urinary NQO1/creatinine levels (NQO1; healthy volunteers and combined CKD participants, 72 hr observation period, 90 mg SnPP): significant, and progressive increases
- p21 response, CKD group compared to healthy volunteer group (p21; 90 mg SnPP): significantly blunted p21 response
- timing of the peak plasma value, p21 (p21; 90 mg SnPP): 12 h
- peak plasma p21 value vs baseline (p21; [3]): significantly higher than baseline values
- plasma p21 fold increase over baseline (mean) (p21; CKD group (combined)): 0.51
- plasma p21 (p21; healthy volunteer and CKD participants, 12 and 24 hrs post SnPP injection): plasma p21 increases
- plasma p21 fold increase over baseline (mean) (p21; healthy volunteer group): 2.65
